# Results taken from patent US8586533B2, “Treatment of early-stage osteoarthritis” (Kaohsiung Medical University, priority 2008, dated 2013).
# Assays:
# rat articular cartilage [1] = assay: Papain-induced OA rat model, Safranin O-stained GAG histomorphometry; type: in vivo, Sprague-Dawley rats; settings: for GAG level (red:total ratio) versus OA group: p<0.01
# Experimental: (§1) Fifty-four 12-week-old male Sprague-Dawley rats (250-300 gm) were purchased from BioLASCO Taiwan and housed under standard laboratory conditions (temperature 24° C., 12-hour light-dark cycle) with food and water ad libitum. The animals were acclimatized to the laboratory environment for 1 week before the experiments.
# Rats were divided into the following 3 groups: OA (OA induction without PTH [1-34] treatment) (n=18), OA plus PTH (PTH [1-34] treatment followed by OA induction) (n=18), and PTH (PTH [1-34] treatment without OA induction) (n=18). Each left knee, which served as the contralateral control joint, was injected with vehicle without PTH treatment or OA induction. The right knees were the study joints. OA was induced in the right knees of rats in the OA and OA plus PTH groups with intraarticular injections of 20 μl of 4% papain solution and 20 μl of 0.03M cysteine. The injections were given with a 26-gauge needle via the patellar tendon on days 1, 4, and 7 of the experiment (see e.g., Nucl Med Commun (1996) 17(6): 529-35). In the OA plus PTH group, after OA induction, the right knees were injected intraarticularly with 40 μl of 10 nM PTH (1-34) every 3 days until rats were killed. In the PTH group, the same PTH (1-34) treatment was performed but without OA induction. Six rats from each group were killed by CO2 inhalation at the same time points as rats in the OA plus PTH group, in which PTH (1-34) treatment was given for 1, 3, and 5 weeks.
# After rats were killed, the knees were harvested, and the tibia plateaus with articular cartilage were collected and fixed with 10% neutral buffered formalin prior to histologic preparation. The samples were then decalcified in 10% formic acid/PBS. The decalcified tibia articular samples were paraffin embedded, and 5-μm microsections in the coronary plane were prepared. GAG was stained with Safranin O-fast green (1% Safranin O counterstained with 0.75% hematoxylin and then 1% fast green) (Sigma, St. Louis Mo.). Localized type II collagen and type X collagen were immunostained. Apoptotic cells in cartilage were TUNEL stained.
# GAG was stained red by Safranin O, and the total and red-stained areas in the articular cartilage of each proximal tibia were measured using Image-Pro Plus software, version 5.0. The ratio of red stained area to total area (red:total) in each group was calculated.
# Methods are as described above in the Sections entitled “Animal Experiments” and “Osteoarthritis Induction and PTH Treatment” except that the concentration of the administered dose of PTH (1-34) was 5 nM, 10 nM, or 100 nM. Safranin O-stained articular cartilage in the proximal tibia from the contralateral control joints of rats in the OA group and the study joints of rats in the OA and OA plus PTH groups are measured for the ratio of Safranin O-stained area to total area. The ratios of Safranin O-stained area to total area (red/total) among all groups after 5 weeks of PTH treatment are compared. Bars show the mean and SEM of 6 samples. Data are evaluated by one-way analysis of variance, and multiple comparisons are performed using Scheffe's method. **=P<0.01: the control joints versus study joints in the OA group at the indicated time point; ##=P<0.01: the OA joints versus study joints in groups of OA plus PTH 5 nM, OA plus PTH 10 nM, and OA plus PTH 100 nM.
# rat articular cartilage [2] = assay: Papain-induced OA rat model, TUNEL staining of tibia articular sections; type: in vivo, Sprague-Dawley rats; settings: OA plus PTH group, 10 nM intraarticular
# Experimental: as §1
# Rats were divided into the following 3 groups: OA (OA induction without PTH [1-34] treatment) (n=18), OA plus PTH (PTH [1-34] treatment followed by OA induction) (n=18), and PTH (PTH [1-34] treatment without OA induction) (n=18). Each left knee, which served as the contralateral control joint, was injected with vehicle without PTH treatment or OA induction. The right knees were the study joints. OA was induced in the right knees of rats in the OA and OA plus PTH groups with intraarticular injections of 20 μl of 4% papain solution and 20 μl of 0.03M cysteine. The injections were given with a 26-gauge needle via the patellar tendon on days 1, 4, and 7 of the experiment (see e.g., Nucl Med Commun (1996) 17(6): 529-35). […]
# Apoptotic cells in each section were measured by TUNEL staining using the In Situ Cell Death Detection Kit, TMR red. […] DAPI-stained cells (mean±SEM 150±40) were counted in the center area of the cartilage in tibia plateaus. […]
# [3] = system: human articular chondrocytes; assay: Quantitative real-time PCR of mRNA levels in azaC-induced terminal differentiation culture model; type: cell-based
# Experimental: Chondrocyte cultures were divided into 4 groups. […] Louis, Mo.) for 48 hours.
# [4] = system: human articular chondrocytes; assay: Dimethylmethylene blue (DMMB) assay of GAG levels in chondrocyte cultures; type: cell-based; settings: for GAG levels versus control group: 10 nM
# Experimental: Chondrocyte cultures were divided into 4 groups.
# Alginate beads were dissolved as described above and further digested by papain (300 μg/ml) at 60° C. for 18 hours. The levels of DNA and sulfated glycosaminoglycan (GAG) in the samples were quantified using Hoechst 33258 dye and 1,9-dimethylmethylene blue dye, respectively. A standard curve for the DMMB assay was generated using aqueous chondroitin sulfate C solution (Sigma-Aldrich, St. Louis, Mo.) at concentrations ranging from […].
substance,measurement,setting,value
PTH (1-34): 34-amino acid long peptide made up of amino-terminal amino acids 1 through 34 of human parathyroid hormone,GAG level (red:total ratio) versus OA group,"rat articular cartilage [1]; 5 nM, intraarticular every three days, 5 weeks",significantly higher
same,GAG level (red:total ratio) versus OA group,"rat articular cartilage [1]; 10 nM, intraarticular every three days, 5 weeks",significantly higher
same,GAG level (red:total ratio) versus OA group,"rat articular cartilage [1]; 100 nM, intraarticular every three days, 5 weeks",significantly higher
same,"GAG level, control group versus PTH-treated groups","rat articular cartilage [1]; 5, 10, or 100 nM, intraarticular every three days, 5 weeks",no significant difference
same,red:total ratio versus contralateral control,"rat articular cartilage [1]; OA plus PTH group, 10 nM intraarticular, 1 and 3 weeks, P<0.01",significantly lower
same,red:total ratio versus contralateral control cartilage,"rat articular cartilage [1]; OA plus PTH group, 10 nM intraarticular, 5 weeks",not significantly different
same,"red:total ratio (Safranin O-stained area to total area, GAG) versus OA group","rat articular cartilage [1]; OA plus PTH group, intraarticular 40 μl of 10 nM every 3 days, 1, 3, and 5 weeks, P<0.01",significantly higher
same,"red:total ratio, study cartilage versus contralateral control cartilage","rat articular cartilage [1]; PTH group (no OA induction), 10 nM intraarticular, any time point",no significant differences
same,rate of apoptosis of chondrocytes in study cartilage versus contralateral control cartilage,rat articular cartilage [2],no significant difference
same,rate of apoptosis of chondrocytes in study cartilage versus OA group,rat articular cartilage [2]; P<0.01,significantly lower
same,"Col2a1 expression among azaC plus PTH, azaC and control groups","[3]; 10 nM, 10 days of treatment",no significant difference
same,"Expression of aggrecan, Col2a1, Col10a1, ALP, and IHH genes versus control group","[3]; PTH group (no azaC), 10 nM, 3-10 days of treatment",not significantly different
same,Bcl-2 expression,"[3]; PTH group (no azaC), 10 nM, 3-10 days of treatment, not statistically significant",1.7 times that in control
same,"azaC-induced changes in levels of mRNA for Col10a1, ALP, and IHH","[3]; azaC plus PTH cultures, 10 nM, 3, 7 and 10 days of treatment",significantly eliminated
same,Expression of Col10a1 and ALP versus control cultures,"[3]; azaC plus PTH cultures, 10 nM, day 3 of treatment, P<0.01",lower
same,Expression of ALP versus control cultures,"[3]; azaC plus PTH cultures, 10 nM, day 10 of treatment, P<0.05",higher
same,"IHH mRNA level, lower than control cultures","[3]; azaC plus PTH group, 10 nM, 3-10 days of treatment",47-71%
same,aggrecan mRNA level versus azaC group,"[3]; azaC plus PTH group, 10 nM, 3 and 7 days of treatment (P<0.05, P<0.01)",significantly higher
same,Col2a1 expression versus azaC group,"[3]; azaC plus PTH group, 10 nM, 3 days of treatment, P<0.05",significantly higher
same,Col2a1 expression versus azaC (P<0.01) or control (P<0.05) group,"[3]; azaC plus PTH group, 10 nM, 7 days of treatment",higher
same,aggrecan mRNA level versus azaC group,"[3]; azaC plus PTH group, 10 nM, 10 days of treatment",not different
same,Bax expression,"[3]; azaC plus PTH group, 10 nM, 14 days",1.6 times that in the control cultures
same,ratio of Bcl-2 to Bax versus control group,"[3]; azaC plus PTH group, 10 nM, after 3 days (P<0.05) and 10 days (P<0.01)",higher
same,Bcl-2 expression,"[3]; azaC plus PTH group, 10 nM, after 3 days of treatment, P<0.05",2.1 times that of control
same,Bcl-2 expression,"[3]; azaC plus PTH group, 10 nM, after 7 days of treatment, P<0.05",2.1 times control
same,Bcl-2 expression,"[3]; azaC plus PTH group, 10 nM, after 10 days of treatment, P<0.01",6.0 times control
same,GAG levels versus control group,[4]; PTH group (no azaC),not significantly different
same,GAG levels versus azaC group,"[4]; azaC plus PTH group, 10 nM, 3, 7, and 10 days, P<0.01",significantly higher
same,GAG levels versus control group,"[4]; azaC plus PTH group, after 7 and 10 days, P<0.01",higher
